# Source: US11197868B2, “Prevention of preterm birth (PTB) by inhibition of FKBP51” (UNIVERSITY OF SOUTH FLORIDA, priority 2017, dated 2021)
# Tested on: FKBP51
# Test: FKBP51 protein expression in primary term decidual cell cultures by immunoblotting
# Type: cell-based
# Conditions: 24 hours
# Experimental: This example describes an analysis of FKBP51 expression in primary term decidual cells (DCs) induced by dexamethasone (DEX) (0.1 μM) or 15dPGJ2 (5 or 20 μM) or DEX+15dPGJ2 (0.1 μM+5 or +20 μM).
# Glucocorticoids (e.g. dexamethasone (DEX), medroxyprogesterone acetate) are primary inducers of FKBP51 mRNA and protein expression in decidual cells (DCs). It was determined that both restrained stress-induced preterm birth and fetal growth restriction are blocked in FKBP51 knockout mice compared to WT mice. To determine the potential therapeutic impact of 15-deoxy-Δ12,14-prostaglandin J2 (15dPGJ2) on regulation of dexamethasone-induced FKBP51, primary term DC cultures (n=1) were induced by DEX (0.1 μM), 15dPGJ2 (5 or 20 μM), or DEX+15dPGJ2 (0.1 μM+5 or +20 μM) for 24 hours, and FKBP51 protein levels were then analyzed by immunoblotting, as shown in FIG. 15A.
SMILES,"increase of FKBP51 expression compared to control (DEX 0.1 μM alone, primary term DC cultures (n=1)) [%]","decrease of FKBP51 expression compared to control (5 μm 15dPGJ2 alone, term DC cultures (n=1)) [%]","reduction of DEX-induced FKBP51 expression (5 μm 15dPGJ2 combined with DEX 0.1 μM, term DC cultures (n=1)) [%]","decrease of FKBP51 expression compared to control (20 μm 15dPGJ2 alone, term DC cultures (n=1)) [%]","effect on DEX-induced FKBP51 expression (20 μm 15dPGJ2 combined with DEX 0.1 μM, term DC cultures (n=1))"
"C[C@@H]1C[C@H]2[C@@H]3CCC4=CC(=O)C=C[C@]4(C)[C@@]3(F)[C@@H](O)C[C@]2(C)[C@@]1(O)C(=O)CO [DEX, dexamethasone]",60,–,–,–,–
"CCCCC/C=C/C=C1/C(=O)C=C[C@@H]1C/C=C\CCCC(=O)O [15dPGJ2, 15-deoxy-Δ12,14-prostaglandin J2]",–,10,12,18,completely blocking DEX-induced FKBP51 expression
